Test results: patent publication US5763433A, “Pharmaceutical compositions containing 3-beta-hydroxylated 6,7-substituted steroid derivatives, and use thereof” (Conservatoire National des Arts et Metiers, priority 1992, dated 1998)

Tests used:
[1] = cited from earlier work
[2] = system: AIDS; conditions: 400 to 2500 mg/day; cited from earlier work
[3] = system: human viruses Edwards CVB4 or HSV2; conditions: s.c., of the order of 1 g/kg 4 hours prior to viral infection; also oral 0.4% in the diet for 16 weeks; cited from earlier work
[4] = system: anti-lysozyme IgG; assay: Immunoenzymatic measurement of anti-lysozyme IgG in serum of mice immunized against lysozyme; assay type: in vivo, C57BL/6 mice; conditions: for Optical densities +/- SD, anti-lysozyme IgG, 1/180 serial dilution: serum 1/180; for Optical densities +/- SD, anti-lysozyme IgG, 1/180 serial dilution / Optical densities +/- SD, anti-lysozyme IgG, 1/540 serial dilution / Optical densities +/- SD, anti-lysozyme IgG, first serial dilution: s.c., mean of 5 mice; for Optical densities +/- SD, anti-lysozyme IgG, 1/180 serial dilution / Optical densities +/- SD, anti-lysozyme IgG, 1/540 serial dilution: doses and timing as E1; for Optical densities +/- SD, anti-lysozyme IgG, 1/540 serial dilution: serum 1/540; for Optical densities +/- SD, anti-lysozyme IgG, first serial dilution: serum dilution not given, PREG 0,5 g/kg, DHEA 1,0 g/kg, ADIOL 125 mg/kg 1 hour before lysozyme, 7-hydroxy-PREG and 7-hydroxy-DHEA 6,25 mg/kg, 7β-hydroxy-DHEA 50,0 mg/kg, 7- and 7β-hydroxy-ADIOL 25,0 mg/kg with lysozyme; for Effect on serum concentrations of anti-lysozyme IgG (in words): steroid administered s.c. at least one hour prior to the injection of lysozyme; for Effect on serum anti-lysozyme IgG (in words): steroid administered s.c. simultaneously with lysozyme
Description: The immunity effector effect was tested by subcutaneous injection concomitantly with that of an antigen and the 7-alpha- or 7-beta-hydroxylated derivative into C57BL/6 mice according to a standard immunization protocol (Methods in Enzymology (1980), vol. 70).
The effect of the compound as cellular immunity effector is measured by the quantity of circulating IgG directed against the antigen 21 days after the injection and after a booster injection 14 days layer.
Thirty five groups of five 6-weeks old C57BL/6 mice are given a subcutaneous injection of 200 ug of hen egg white lysozyme on days one and fourteen of the immunization protocol. Solutions of DHEA (Sigma D-4500) in dimethyl sulfoxide (DMSO) are injected in the same manner at variable times before the first injection of lysozyme. Amounts ranging from 0.25 and 2 g/kg are used. Ten other groups of 5 mice are given a subcutaneous injection of 6.25 to 50 mg/kg of 7-alpha-hydroxy-DHEA or 7-beta-hydroxy-DHEA dissolved in DMSO at the same time as the first lysozyme injection. Two groups receive only DMSO with lysozyme (controls). The blanks correspond to one group of 5 mice and are not given an injection.
Three weeks after the first injections the animals, then aged 9 weeks, are decapitated. The blood of each animal is collected and the presence of anti-lysozyme G immunoglobulins (IgG) is measured in serial dilutions of the sera by an immunoenzymatic titration using goat anti-mouse (Fc) IgG immunoglobulin labelled with peroxidase.
A group of 5 mice is given the subcutaneous injection of 125 mg/kg of 5-androstene-3-beta, 17-beta-diol (ADIOL) one hour prior to the first injection of lysozyme, and two groups of 5 mice are treated with 25 mg/kg of 7-alpha-hydroxy-ADIOL or 7-beta-hydroxy-ADIOL at the time of the first lysozyme injection.
DHEA or PREG or ADIOL is injected subcutaneously 1 hour before the first lysozyme injection. The 7-hydroxylated derivatives are administered simultaneously with the lysozyme injection. The immunoenzymatic measurement of the anti-lysozyme IgGs in the serial dilutions of the sera of each animal makes use of goat anti-mouse (Fc) IgG immunoglobulin, labelled with peroxidase in 96-well plates treated with lysozyme. The mean value of the optical densities measured in each group of 5 mice is calculated as well as the standard deviation (SD).

[5] = target: T1, nuclear binding of tritiated dexamethazone (glucocorticoid receptors) (Mus musculus, UniProt P06537); assay: Displacement of the nuclear binding of tritiated dexamethazone in isolated liver, brain, thymus and spleen cells; design: species or system C57BL/6 mouse; conditions: for Displacement coefficient for nuclear binding of tritiated dexamethazone, Brain: brain cells; for Displacement coefficient for nuclear binding of tritiated dexamethazone, Brain / Displacement coefficient for nuclear binding of tritiated dexamethazone, Liver / Displacement coefficient for nuclear binding of tritiated dexamethazone, Spleen / Displacement coefficient for nuclear binding of tritiated dexamethazone, Thymus: no competitor = zero, unlabelled dexamethazone = 100, mean of triplicate; for Displacement coefficient for nuclear binding of tritiated dexamethazone, Liver: liver cells, 100-fold excess of steroid over 2-80 nM 3H-dexamethazone, 60 min; for Displacement coefficient for nuclear binding of tritiated dexamethazone, Spleen: spleen cells; for Displacement coefficient for nuclear binding of tritiated dexamethazone, Thymus: thymus cells
T1 construct: The liver, brain, spleen and thymus are excised and the cells of each organ are recovered; from tissue; host or cells: isolated cells of liver, brain, spleen and thymus of metyrapone-treated C57BL/6 mice
T1 sequence (P06537 1-792): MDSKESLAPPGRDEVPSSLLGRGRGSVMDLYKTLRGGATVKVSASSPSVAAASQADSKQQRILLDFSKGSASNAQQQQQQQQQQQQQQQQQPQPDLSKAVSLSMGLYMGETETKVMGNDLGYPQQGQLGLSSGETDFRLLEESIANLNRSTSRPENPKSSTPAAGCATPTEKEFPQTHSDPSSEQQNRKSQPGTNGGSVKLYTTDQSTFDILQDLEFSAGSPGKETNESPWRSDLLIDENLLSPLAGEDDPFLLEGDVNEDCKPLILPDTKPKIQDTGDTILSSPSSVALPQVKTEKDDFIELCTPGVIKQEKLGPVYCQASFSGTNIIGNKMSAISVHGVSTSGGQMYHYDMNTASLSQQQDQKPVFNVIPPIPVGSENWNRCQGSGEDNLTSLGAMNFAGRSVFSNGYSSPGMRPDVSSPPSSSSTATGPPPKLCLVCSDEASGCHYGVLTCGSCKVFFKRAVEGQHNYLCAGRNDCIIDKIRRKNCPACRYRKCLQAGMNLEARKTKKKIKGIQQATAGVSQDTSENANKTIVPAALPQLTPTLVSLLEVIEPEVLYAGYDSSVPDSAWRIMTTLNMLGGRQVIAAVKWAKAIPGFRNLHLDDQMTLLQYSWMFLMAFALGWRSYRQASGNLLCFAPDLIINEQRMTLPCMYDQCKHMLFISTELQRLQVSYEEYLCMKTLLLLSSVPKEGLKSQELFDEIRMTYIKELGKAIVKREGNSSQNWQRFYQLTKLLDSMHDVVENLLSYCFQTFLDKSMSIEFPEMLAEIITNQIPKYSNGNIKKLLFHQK
Description: The isolated hepatocytes are incubated for 1 hour at room temperature with increasing concentrations (2-80 nM) of ^3 H-dexamethazone (DEX*). […] The hepatocyte nuclei are then isolated and purified and the radioactivity corresponding to the DEX* still bound is measured and expressed in cpm/10 ug of DNA. The area under the curve DEX* corresponds to zero displacement of the radioactivity. The area under the curve DEX*/DEX which corresponds to the displacement of radioactivity by the same molecule is taken arbitrarily as 100. The areas under the curve obtained with the other steroids makes it possible to calculate by interpolation between the areas zero and 100 their displacement coefficients for the nuclear binding of DEX*.
The mice are anesthetized with ether and bled, then perfused intracardially with physiological serum containing collagenase B (0.03 g/100 ml) for 10 minutes. […] The quantities of cells obtained are estimated on the base of the measurement of the DNA contained in the preparations.
The nuclei are recovered and their radioactive content measured as described by the authors cited above.
The area under the curve of tritiated dexamethazone alone is measured and taken as zero. […] The displacement coefficients found for each of the other steroids are calculated by interpolation on this scale, each result being the mean of a triplicate determination.

[6] = system: cytosolic or nuclear receptors specific for 7-alpha-hydroxy-DHEA; assay: Search for cytosolic or nuclear receptors specific for 7-alpha-hydroxy-DHEA (studies not reported); assay type: binding; conditions: studies not reported here
[7] = system: antiviral response; conditions: 20 mg/kg to 320 mg/kg s.c. or 0.4% by weight of the diet; cited from earlier work

Compound | Solubility in aqueous solutions [1] | Effect on patients suffering from AIDS [2] | Survival of infected mice [3] | Optical densities +/- SD, anti-lysozyme IgG, 1/180 serial dilution [4] | Optical densities +/- SD, anti-lysozyme IgG, 1/540 serial dilution [4] | Optical densities +/- SD, anti-lysozyme IgG, first serial dilution [4] | Effect on serum concentrations of anti-lysozyme IgG (in words) [4] | Displacement of tritiated dexamethazone from nuclear binding / anti-glucocorticoid action (in words) ([5]; 100-fold excess of steroid) | Displacement coefficient for nuclear binding of tritiated dexamethazone, Brain ([5]; 100-fold excess of steroid) | Displacement coefficient for nuclear binding of tritiated dexamethazone, Liver [5] | Displacement coefficient for nuclear binding of tritiated dexamethazone, Spleen ([5]; 100-fold excess of steroid) | Displacement coefficient for nuclear binding of tritiated dexamethazone, Thymus ([5]; 100-fold excess of steroid) | Existence of specific cytosolic or nuclear receptors [6] | Effect on serum anti-lysozyme IgG (in words) ([4]; listed as 7-alpha-OH-DHEA) | Effect on serum anti-lysozyme IgG (in words) ([4]; listed as 7-alpha-hydroxy-DHEA) | Antiviral response [7] | Optical densities +/- SD, anti-lysozyme IgG, first serial dilution (*) ([4]; * calculated from measurements on higher dilutions of the serum, dilution not given, PREG 0,5 g/kg 1 hour before, 7-hydroxy-PREG 6,25 mg/kg with lysozyme) | Optical densities +/- SD, anti-lysozyme IgG, 1/180 serial dilution (*) ([4]; * calculated from measurements on higher dilutions of the serum, 1/180, 7-hydroxy-PREG 6,25 mg/kg with lysozyme) | Effect on serum anti-lysozyme IgG (in words) ([4]; listed as 7-beta-OH-DHEA) | Effect on serum anti-lysozyme IgG (in words) ([4]; listed as 7-beta-hydroxy-DHEA)
C[C@]12CC[C@H](O)CC1=CC[C@@H]1[C@@H]2CC[C@]2(C)C(=O)CC[C@@H]12 [DHEA, 3-beta-hydroxy-5-androsten-17-one, reference compound] | low solubility | positive effect | enables the survival of mice infected by the human viruses Edwards CVB4 or HSV2 to be increased | 0,26 ± 0,04 | 0,14 ± 0,02 | 0,40 ± 0,06 | increase the serum concentrations of anti-lysozyme IgG | – | – | – | – | – | – | – | – | – | – | – | – | –
C[C@]12CC[C@H](O)CC1=C[C@@H](O)[C@@H]1[C@@H]2CC[C@]2(C)C(=O)CC[C@@H]12 [7-hydroxy-DHEA, 3-beta, 7-alpha-dihydroxy-androst-5-en-17-one] | – | – | – | 0,74 ± 0,21 | 0,43 ± 0,12 | 1,21 ± 0,37 | – | more effective that the 7-beta epimer | 49 | 95 | 91 | 85 | do not exist | particularly marked effect of the low doses | much more active than its 7-beta epimer | – | – | – | – | –
C[C@]12CC[C@H]3[C@@H](CC=C4C[C@@H](O)CC[C@@]43C)[C@@H]1CC[C@@H]2O [ADIOL, 5-androstene-3-beta, 17-beta-diol, reference compound] | – | – | – | 0,37 ± 0,06 | 0,22 ± 0,03 | 0,26 ± 0,09 | increase the serum concentrations of anti-lysozyme IgG | – | – | – | – | – | – | – | – | enhanced antiviral response | – | – | – | –
CC(=O)[C@H]1CC[C@H]2[C@@H]3[C@H](O)C=C4C[C@@H](O)CC[C@]4(C)[C@H]3CC[C@]12C [7-hydroxy-PREG, 7-alpha-hydroxy-PREG] | – | – | – | – | 0,77 ± 0,05 | – | – | – | 38 | 34 | 81 | 94 | – | – | – | – | 4,46 ± 0,30 | 2,20 ± 0,14 | – | –
C[C@]12CC[C@H](O)CC1=C[C@H](O)[C@@H]1[C@@H]2CC[C@]2(C)C(=O)CC[C@@H]12 [7β-hydroxy-DHEA, 3-beta, 7-beta-dihydroxy-androst-5-en-17-one] | – | – | – | 0,31 ± 0,04 | 0,13 ± 0,01 | 0,46 ± 0,06 | – | – | 65 | 80 | – | – | – | – | – | – | – | – | effect equivalent to that of DHEA injected 1 hour before the antigen, but at doses 20 times lower | response identical with that of 1 g/kg of DHEA administered 1 hour prior to that of lysozyme
